{"source": "paper PMC9927515", "about": "“Discovery and Mechanism of Action of a Novel Antimicrobial Peptide from an Earthworm” (Microbiology Spectrum, 2023)", "key": {"[1]": {"assay": "Sensitivity to temperature (residual antibacterial rate)", "type": "physicochemical", "conditions": "water bath 50-100°C for 1 h; residual antibacterial rate by MIC method, OD600; especially in E. coli; Fig. S2a", "protocol": "(§1) The AMP was treated for 1 h with a water bath heated at 50, 60, 70, 80, 90, or 100°C to evaluate temperature sensitivity, while the pH was adjusted to 2, 4, 6, 8, 10, and 12 and then back to 7.4 after 1 h to evaluate pH sensitivity. The changes in antibacterial activity were determined using the MIC method, as follows: antibacterial rate = [(OD600 positive control − OD600 sample)/(OD600 positive control − OD600 negative control)] × 100, where OD600 is the optical density at 600 nm.\n(§2) Table S1 Sequences of 21 synthetic peptides\n(§3) Table S3 Sequences and MICs of derivatives of EWAMP.15\n(§4) Table S4 Sequences and MICs of Alanine scanning derivatives\n(§5) Table S5 Sequences and MICs of Arg and Lys derivatives\n(§6) Table S6 Summary of membrane thickness\n(§7) Table S7 Primers used in RT-PCR\n(§8) Fig. S1 MICs of EWAMP.15 12 -24 derivatives that were replaced in different sites. In\n(§9) the X-axis, the number and the letter represent the replaced site and the amino acid residue.\n(§10) Fig. S2 Physical stability and in vitro toxicity of EWAMP-R. (a) Residual antibacterial\n(§11) rates after water heating for 1 h showing the temperature stability. (b) Residual antibacterial\n(§12) rates after acid or alkaline solution treatment showing the pH stability. (c) Hemolytic\n(§13) and negative controls. (d) Cell survival rate of LO2 after EWAMP-R treatment. All the cell\n(§14) survival rate was above 95%.\n(§15) Fig. S3 Root-mean-squared deviation (RMSD) and root-mean-squared fluctuation […]"}, "[2]": {"assay": "Sensitivity to pH (residual antibacterial rate)", "type": "physicochemical", "conditions": "pH adjusted to 2-12, back to 7.4 after 1 h; residual antibacterial rate by MIC method, OD600; especially in E. coli; Fig. S2b", "protocol": "as §1, §2, §3, §4, §5, §6, §7, §8, §9, §10, §11, §12, §13, §14, §15"}, "[3]": {"test_system": "sheep blood", "type": "cell-based", "protocol": "Sterile defibrinated sheep blood (Titan, Shanghai, China) was kept at 4°C and was used within 3 days after being received. Hemolysis assessment was conducted following the method of Liu et al. ([34]). The hemolysis rate was calculated using the following formula: hemolysis rate = [([…] sample - […] blank)/([…] 0.2% Triton X-100 - […] blank)] × 100."}}, "note": "Where no end group is shown, it is not given here.", "data": [{"sequence": "RIWWSGGWRRWRW [EWAMP-R]", "values": [{"measurement": "stability of antibacterial activity under temperature changes", "setting": "[1]", "value": "comparative stability"}, {"measurement": "stability of antibacterial activity under pH changes", "setting": "[2]", "value": "comparative stability"}, {"measurement": "hemolytic activity: absorbance in treatment groups versus negative controls", "setting": "[3]", "value": "not significantly different"}]}]}
